Results from ChEMBL document CHEMBL1671717, “In vitro potentiation of carbapenems with ME1071, a novel metallo-beta-lactamase inhibitor, against metallo-beta-lactamase- producing Pseudomonas aeruginosa clinical isolates” (Antimicrob Agents Chemother, 2010).

Key:
Beta-lactamase = Beta-lactamase (Pseudomonas aeruginosa, UniProt Q79MP6)
Description: Inhibition of Pseudomonas aeruginosa beta-lactamase IMP-1 assessed as hydrolysis of nitrocefin by UV spectrophotometric analysis

Beta-lactamase VIM-2 = Beta-lactamase VIM-2 (Pseudomonas aeruginosa, UniProt Q9K2N0)
Description: Inhibition of Pseudomonas aeruginosa beta-lactamase VIM-2 assessed as hydrolysis of nitrocefin by UV spectrophotometric analysis

Sequence of Beta-lactamase (Q79MP6 whole entry): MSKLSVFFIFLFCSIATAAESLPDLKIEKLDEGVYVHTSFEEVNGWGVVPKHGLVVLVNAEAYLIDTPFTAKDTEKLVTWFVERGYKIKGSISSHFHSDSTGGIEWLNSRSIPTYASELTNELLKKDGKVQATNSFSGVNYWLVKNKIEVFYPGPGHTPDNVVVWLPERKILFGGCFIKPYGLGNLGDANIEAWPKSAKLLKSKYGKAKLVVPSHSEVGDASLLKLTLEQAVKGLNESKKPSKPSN

Compound	Ki (Beta-lactamase) [nM]	Ki (Beta-lactamase VIM-2) [nM]
C[C@@H](O)[C@H]1C(=O)N2C(C(=O)O)=C(Sc3cc4ccccc4s3)[C@H](C)[C@H]12	180	
O=C(O)CCS [MERCAPTOPROPIONIC ACID]	180	
CC/C(C(=O)O)=C(\CC)C(=O)O		120000
O=C(O)CS [THIOGLYCOLIC ACID]	180	
COC1OC(C)=Cc2oc3cc(O)c(O)c(C(=O)O)c3c(=O)c21 (stereo not given)	180	
